From PMC9504587, “Cytotoxic Drimane-Type Sesquiterpenes from Co-Culture of the Marine-Derived Fungi Aspergillus carneus KMM 4638 and Beauveria felina (=Isaria felina) KMM 4639” (Marine Drugs, 2022)
Values after ≈ are worked out from the molar mass of the structure shown. Where two headings read alike, the source gives them in different places.

Experiments:
[1] = tested on: rat glioblastoma C6; assay: MTT cytotoxicity assay, C6 cells; assay type: cell-based; settings: 24 h incubation, mean ± SEM
Method: (§1) PC-3, MCF-7, C6, and H9c2 cells were cultured in DMEM medium (Biolot, St. Petersburg, Russia) containing 10% fetal bovine serum (Biolot, St. Petersburg, Russia) and 1% penicillin/streptomycin (Biolot, St. Petersburg, Russia) at 37 °C in a humidified atmosphere with 5% (v/v) CO2. The Raji cells were cultured in RPMI-1640 medium (Biolot, St. Petersburg, Russia) containing 10% fetal bovine serum (Biolot, St. Petersburg, Russia) and 1% penicillin/streptomycin (Biolot, St. Petersburg, Russia) under the same conditions.
(§2) Initially, cells were incubated in culture flasks until subconfluent (~80%). For testing, the cells were seeded at concentrations of 5 × 10^3 cells/well (PC-3, MCF-7, Raji, and C6 cells) or 3 × 10^3 cells/well (H9c2 cells), and experiments were started after 24 h.
(§3) The in vitro cytotoxicity of individual substances was determined by the MTT method (3-(4,5-dimethylthiazol-2-yl)-2,5-diphenyltetrazolium bromide), according to the manufacturer’s instructions (Sigma-Aldrich, St. Louis, MO, USA).
(§4) Investigated compounds were dissolved in DMSO at a concentration of 10 mM.
(§5) The cells were treated with the investigated compounds for 24 h or 48 h, and MTT reagent was added to each well of the plate. The vehicle with DMSO at a concentration of 1% was used as a control. The absorbance of formed formazan was measured at λ = 570 nm using a Multiskan FC microplate photometer (Thermo Scientific, Waltham, MA, USA) and expressed in optical units (o.u.). The results are presented as % of viable cells relative to vehicle, and 50% inhibition concentration of cell viability (IC50) was calculated.

[2] = tested on: lymphoma L5178Y; parameters: method as in PMID 19778087; settings: cited from earlier work
[3] = target: SHP2; parameters: method as in earlier work; settings: cell-free assay; cited from earlier work
[4] = target: PTP1B; parameters: method as in earlier work; settings: cell-free assay; cited from earlier work
[5] = tested on: human prostate cancer PC-3; assay: MTT cytotoxicity assay, PC-3 cells; assay type: cell-based; settings: 24 h incubation, mean ± SEM
Method: as §1, §2, §3, §4, §5

[6] = tested on: MCF-7 cells; assay: Apoptosis profile by flow cytometry (Muse annexin V and dead cell kit); assay type: cell-based, human; settings: 10 µM, 48 h
Method: After incubation, culture media were collected; then, cells were washed twice with cold PBS and incubated with trypsin-EDTA solution for 1 min. The cell suspension was washed twice by centrifugated at 250× g for 4 min with cold PBS and used for apoptosis detection by a Muse® annexin V and dead cell kit in accordance with manufacturer’s instructions (Luminex, Austin, TX, USA). Fluorescence was measured with a Muse® cell analyzer (Luminex, Austin, TX, USA), and data were processed by Muse 1.5 analysis software (Luminex, Austin, TX, USA). The proportion of apoptotic cells was expressed as a percentage.

[7] = tested on: human lung cancer A549 cells; parameters: method as in PMID 19769341; settings: cited from earlier work
[8] = tested on: human leukemia HL-60 cells; parameters: method as in PMID 19769341; settings: read-out: IC50, HL-60 cell viability; cited from earlier work
[9] = tested on: MCF-7 cells; assay: Total caspase activity by flow cytometry (Muse multicaspase kit); assay type: cell-based, human; settings: 10 µM, 48 h; control 4.7%
Method: The influence of the compounds on the percentage of live MCF-7 cells (caspase−/7-AAD−), live MCF-7 cells with caspase activity (caspase+/7-AAD−), dead MCF-7 cells with caspase activity […] MCF-7 cells (caspase−/7-AAD+) was measured by a Muse® multicaspase kit (Luminex, Austin, TX, USA). The kit utilizes a VAD-peptide derivatized with a fluorescent group called fluorescent-labeled inhibitor of caspases (FLICA). The peptide binds to activated caspases, resulting in a fluorescent signal proportional to the number of active caspases in the cell. Fluorescent dye 7-AAD was used as a dead cell marker in this assay.
After incubation, culture media were collected, and cells were washed twice with cold PBS and incubated in trypsin-EDTA solution for 1 min. The cell suspension was washed twice by centrifugation at 250× g for 4 min with cold PBS and then used for caspase activity detection by a Muse® multicaspase kit (caspases 1, 3, 4, 5, 6, 7, 8, and 9) in accordance with manufacturer’s instructions (Luminex, Austin, TX, USA). Fluorescence was measured with a Muse® cell analyzer (Luminex, Austin, TX, USA), and data were processed by Muse 1.5 analysis software (Luminex, Austin, TX, USA).

[10] = tested on: PC 12; parameters: method as in PMID 19778087; settings: cited from earlier work
[11] = tested on: human breast cancer MCF-7; assay: MTT cytotoxicity assay, MCF-7 cells; assay type: cell-based
Method: as §1, §2, §3, §4, §5

[12] = tested on: H9c2, C6, PC-3, Raji and MCF-7 cells; assay: MTT cytotoxicity, summary statements over several cell lines; assay type: cell-based; settings: 24 h, range over both compounds and three cell lines
Method: as §3, §4, §5

[13] = tested on: normal rat cardiomyocyte H9c2 cell line; assay: MTT cytotoxicity assay, H9c2 cells; assay type: cell-based; settings: 24 h incubation, mean ± SEM
Method: as §1, §2, §3, §4, §5

[14] = tested on: HeLa cells; parameters: method as in PMID 19778087; settings: cited from earlier work
[15] = tested on: human lymphoma Raji; assay: MTT cytotoxicity assay, Raji cells; assay type: cell-based; settings: 24 h incubation, mean ± SEM
Method: as §1, §2, §3, §4, §5

[16] = tested on: MCF-7 cells; assay: Cell cycle analysis by flow cytometry (propidium iodide); assay type: cell-based, human; settings: 10 µM, 48 h
Method: After incubation, cells were trypsinized, harvested, washed with PBS, and fixed with ice-cold 70% ethanol in a dropwise manner prior to storage at −20 °C overnight. The cells were then washed with PBS, incubated with 200 μg/mL RNAse (PanReac, AppliChem, Darmstadt, Germany) and 20 μg/mL of propidium iodide (Sigma-Aldrich, St. Louis, MO, USA) for 30 min at 37 °C, and the DNA content was analyzed with a Muse® cell analyzer (Luminex, Austin, TX, USA). The data were processed by Muse 1.5 analysis software (Luminex, Austin, TX, USA). The proportion of cells in each phase of the cell cycle was expressed as a percentage.

[17] = tested on: murine leukemia P388 cells; parameters: method as in PMID 21628915; settings: read-out: IC50, P388 cell viability; cited from earlier work
[18] = tested on: Edwardsiella tarda; parameters: method as in PMID 32605151; settings: cited from earlier work
[19] = tested on: Ceratobasidium cornigerum; parameters: method as in PMID 32605151; settings: cited from earlier work
[20] = tested on: human histiocytic lymphoma U937 cell line; parameters: method as in PMID 27936301; settings: cited from earlier work
[21] = Homo sapiens, MCF7, 24 h, 24 h incubation, mean ± SEM, read-out: IC50, MCF-7

CC1(C)CCC[C@@]2(C)[C@H]1[C@H](OC(=O)/C=C/C=C/C=O)C=C1COC(=O)[C@@]12O [Compound 9, ustusolate E]
IC50 ([1]; Rattus norvegicus, C6, 24 h): 54.3 ± 3.3 µM
IC50 [2]: 1.6 µM
IC50, SHP2 enzyme activity [3]: 40 µg/mL (≈ 107 µM)
IC50, PTP1B enzyme activity [4]: 50 µg/mL (≈ 134 µM)
IC50 ([5]; Homo sapiens, PC-3, 24 h): 50.1 ± 1.8 µM
amount of apoptotic cells (early and late) ([6]; control 1.7%): 6.8%
amount of living cells ([6]; control 98.6%): 94.1%
toxicity against A549 cells [7]: nontoxic
IC50 [8]: 8 µM
percentage of cells exhibiting caspase activity (living and 7-AAD-labeled) [9]: 12.4%
IC50 [10]: 19.3 µM
decrease in MCF-7 cell viability ([11]; 10 µM, 48 h): ~50%
IC50 ([11]; 48 h incubation, concentrations up to 10 µM, read-out: IC50, MCF-7 cell viability, prolonged incubation): 10.1 ± 0.5 µM
IC50 [11, 21]: 57.8 ± 0.5 µM
IC50 ([11]; Homo sapiens, MCF7, 48 h, 48 h incubation, concentrations up to 10 µM, read-out: IC50, MCF-7 cell viability, prolonged incubation): 10 µM
IC50 [12]: 54.3 to 88.1 µM
IC50 ([13]; Rattus norvegicus, H9c2, 24 h): 66.9 ± 3 µM
IC50 [14]: 15.8 µM
IC50 ([15]; Homo sapiens, Raji, 24 h): 88.1 ± 1.3 µM
subG0 cells ([16]; control 5.4%): 24.7%
decrease in the percentage of cells in the S phase ([16]; relative to control): 41.2%
increase of the percentage of cells in the G2/M phase ([16]; relative to control): 67.3%
reduction of the percentage of cells in the G0/G1 phase ([16]; relative to control): 33.3%
increase of the subG0 population of cells ([16]; versus control): 4.6 times

CC(O)C(=O)/C=C/C=C/C(=O)O[C@@H]1C=C2COC(=O)[C@]2(O)[C@@]2(C)CCCC(C)(C)[C@H]12 (stereo partly shown) [Compound 10, (6-strobilactone A) ester of (E,E)-6-carbonyl-7-hydroxy-2,4-octadienoic acid]
IC50 ([1]; Rattus norvegicus, C6, 24 h): > 100 µM
IC50 ([5]; Homo sapiens, PC-3, 24 h): 57.8 ± 1.1 µM
IC50 [17]: 8.7 µM
IC50 [11, 21]: 55.1 ± 1.4 µM
IC50 ([13]; Rattus norvegicus, H9c2, 24 h): 61.9 ± 0.5 µM
IC50 ([15]; Homo sapiens, Raji, 24 h): 95.3 ± 0.8 µM

CC(O)C(O)/C=C/C=C/C(=O)O[C@@H]1C=C2COC(=O)[C@]2(O)[C@@]2(C)CCCC(C)(C)[C@H]12 (stereo partly shown) [Compound 11, (6-strobilactone A) esters of (E,E)-6,7-dihydroxy-2,4-octadienoic acid]
IC50 ([1]; Rattus norvegicus, C6, 24 h): > 100 µM
IC50 ([5]; Homo sapiens, PC-3, 24 h): > 100 µM
IC50 [11, 21]: 83.5 ± 1.7 µM
IC50 ([13]; Rattus norvegicus, H9c2, 24 h): > 100 µM
IC50 ([15]; Homo sapiens, Raji, 24 h): 96.9 ± 1.6 µM

CC(O)C(O)/C=C/C=C/C(=O)O[C@@H]1C=C2COC(=O)[C@]2(O)[C@@]2(C)CCCC(C)(C)[C@H]12 (stereo partly shown) [Compound 12, (6-strobilactone A) esters of (E,E)-6,7-dihydroxy-2,4-octadienoic acid]
IC50 [1]: > 100 µM
IC50 [5]: > 100 µM
IC50 ([11]; 24 h incubation, mean ± SEM, read-out: IC50, MCF-7): 81.7 ± 0.9 µM
IC50 [13]: > 100 µM
IC50 [15]: 97.5 ± 0.9 µM

C=C(C)[C@H]1[C@H](OC(C)=O)C[C@H](C)[C@@]12CC=C(C)[C@@H](OC(=O)CCCCCCCC=CCC=CCCCCC)C2 [chermebilaene A]
MIC, Edwardsiella tarda [18]: 0.25 µg/mL (≈ 0.462 µM)
MIC, Ceratobasidium cornigerum [19]: 0.5 µg/mL (≈ 0.925 µM)

aluminumneohydroxyaspergillin
IC50 [20]: 4.2 µM
